Experiments:
3D7 P. falciparum strain = experiment: parasite proliferation assay in infected red blood cells (SYBR Green I); type: cell-based, Plasmodium falciparum; conditions: Plasmodium falciparum, 3D7, Erythrocyte, 3D7 strain; read-out: EC50 3D7 strain
Procedure, shortened: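 P. falciparum 3D7 grown in O+ human erythrocytes to 3–8% parasitemia and exposed to compounds. Proliferation read as the increase in parasite DNA. Detection used SYBR Green I in saponin/triton-X/EDTA lysis buffer, with overnight lysis at room temperature.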

W2 strain = experiment: parasite proliferation assay in infected red blood cells (SYBR Green I), W2 strain; type: cell-based, Plasmodium falciparum; conditions: Plasmodium falciparum, Erythrocyte
Description: Compounds of the invention can be assayed to measure their capacity to inhibit proliferation of parasitemia in infected red blood cells. The proliferation is quantified by the addition of SYBR Green I (INVITROGEN)® dye which has a high affinity for double stranded DNA.

| Structure (SMILES) | EC50 (3D7 P. falciparum strain) [nM] | EC50 (W2 strain) [nM] |
| --- | --- | --- |
| CC1(C)NCCn2c1nc(-c1ccc(F)cc1)c2Nc1ccc(Cl)c(F)c1 [Compound 420] | 20 | 28 |
| Cc1ccc(Nc2c(-c3ccc(F)cc3)nc3n2CC(C)(C)N(C(=O)CN)C3)cc1 [Compound 573] | 40 | 55 |
| Cc1cc(Nc2c(-c3ccc(F)cc3)nc3n2CCN(C(=O)C(C)(C)N)C3(C)C)ccc1Cl [Compound 589] | 10 | 6 |
| CN1CCN(c2ccc(Nc3c(-c4ccc(F)cc4)nc4n3CC(=O)NC4(C)C)cc2)CC1 [Compound 568] | > 8040 | > 11300 |
| N[C@@H](CC1CC1)C(=O)N1CCn2c(nc(-c3ccc(F)cc3)c2Nc2ccc(Cl)cc2)C1 [Compound 451] | 30 | 19 |
| N[C@@H](Cc1cscn1)C(=O)N1CCn2c(nc(-c3ccc(F)cc3)c2Nc2ccc(F)c(F)c2)C1 [Compound 431] | 70 | 80 |
| CC1(C)NC(=O)Cn2c1nc(-c1ccc(F)cc1)c2Nc1ccc(F)c(Cl)c1 [Compound 513] | 170 | 195 |
| CC1(C)NC(=O)Cn2c1nc(-c1ccc(F)cc1)c2Nc1ccc(S(C)(=O)=O)cc1 [Compound 567] | 6460 | 8460 |
| Cc1ccc(Nc2c(-c3ccc(F)cc3)nc3n2CCNC3(C)C)cc1F [Compound 541] | 10 | 10 |
| Cc1ccc(Nc2c(-c3cccc(F)c3)nc3n2C(C)(C)CN(C(=O)CN)C3)cc1 [Compound 594] | 20 | 32 |
| N[C@H](C(=O)N1CCn2c(nc(-c3ccc(F)cc3)c2Nc2ccc(Cl)c(F)c2)C1)C1CC1 [Compound 487] | 40 | 31 |
| Cc1ccc(Nc2c(-c3ccc(F)cc3)nc3n2CCN(C(=O)CNC(C)(C)C)C3)cc1 [Compound 399] | 220 | 196 |
| Cc1ccc(C[C@H](N)C(=O)N2CCn3c(nc(-c4ccc(F)cc4)c3Nc3ccc(C)cc3)C2)cc1 [Compound 484] | 40 | 23 |
| CC1(C)Cn2c(nc(-c3ccc(F)cc3)c2Nc2ccc(Cl)cc2)CN1 [Compound 558] | 60 | 89 |
| Cc1cc(Nc2c(-c3ccc(F)cc3)nc3n2CC(=O)NC3(C)C)ccc1F [Compound 544] | 20 | 37 |
| C[C@@H]1NC(=O)Cn2c1nc(-c1ccc(F)cc1)c2Nc1ccc(Cl)c(F)c1 [Compound 559] | 530 | 642 |
| Cc1cccc(Nc2c(-c3ccc(F)cc3)nc3n2CCN(C(=O)CN)C3(C)C)c1 [Compound 499] | 10 | 6 |
| Cc1ccc(Nc2c(-c3ccc(F)cc3)nc3n2CCN(C(=O)[C@@H](N)CC2CCC2)C3)cc1 [Compound 479] | 20 | 12 |
| CC1(C)c2nc(-c3ccc(F)cc3)c(Nc3ccc(Cl)cc3)n2CCN1C(=O)CN [Compound 417, 2-amino-1-(3-(4-chlorophenylamino)-2-(4-fluorophenyl)-8,8-dimethyl-5,6-dihydroimidazo[1,2-a]pyrazin-7(8H)-yl)ethanone] | 10 | 6 |
| N[C@H](C(=O)N1CCn2c(nc(-c3ccc(F)cc3)c2Nc2ccc(F)cc2)C1)C1CC1 [Compound 465] | 1.9 | 2 |
| O=C([C@@H]1CCN1)N1CCn2c(nc(-c3ccc(F)cc3)c2Nc2ccc(Cl)cc2)C1 [Compound 462] | 50 | 37 |

| Structure (SMILES) | EC50 (3D7 P. falciparum strain) [nM] | EC50 (W2 strain) [nM] |
| --- | --- | --- |
| N[C@@H](CC1CCC1)C(=O)N1CCn2c(nc(-c3ccc(F)cc3)c2Nc2ccc(F)cc2)C1 [Compound 467] | 20 | 16 |
| CC(C)[C@H]1NC(=O)Cn2c1nc(-c1ccc(F)cc1)c2Nc1ccc(Cl)c(F)c1 [Compound 550] | 2560 | 3600 |
| Cc1ccc(C[C@H](N)C(=O)N2CCn3c(nc(-c4ccc(F)cc4)c3Nc3ccc(F)cc3)C2)cc1 [Compound 474] | 130 | 88 |
| N[C@@H](Cc1ccc(F)c(F)c1)C(=O)N1CCn2c(nc(-c3ccc(F)cc3)c2Nc2ccc(Cl)cc2)C1 [Compound 460] | 40 | 33 |
| Cc1ccc(Nc2c(-c3ccc(F)cc3)nc3n2CCN(C(=O)C(C)(N)CC(C)C)C3)cc1 (stereo not shown) [Compound 503] | 120 | 95 |
| CC1(C)NC(=O)Cn2c1nc(-c1ccc(F)cc1)c2Nc1ccc(F)c(F)c1 [Compound 509] | 130 | 134 |
| CC1(C)NCCn2c1nc(-c1ccc(F)cc1)c2Nc1ccc(C#N)cc1 [Compound 426] | 180 | 271 |
| CC[C@H](C)[C@H](N)C(=O)N1CCn2c(nc(-c3ccc(F)cc3)c2Nc2ccc(F)cc2)C1 [Compound 469] | 20 | 16 |
| Cc1ccc(Nc2c(-c3ccc(F)cc3)nc3n2CC(=O)NC3(C)C)cc1Cl [Compound 546] | 30 | 52 |
| CC(C)[C@@H](O)C(=O)N1CCn2c(nc(-c3ccc(F)cc3)c2Nc2ccc(Cl)cc2)C1 [Compound 456] | 20 | 15 |
| CC1(C)Cn2c(nc(-c3ccc(F)cc3)c2Nc2ccc(C#N)c(F)c2)CN1 [Compound 581] | 650 | 668 |
| Cc1ccc(Nc2c(-c3ccc(F)cc3)nc3n2CCNC3(C)C)cc1C#N [Compound 527] | 4 | 6 |
| Fc1ccc(-c2nc3n(c2Nc2ccc(Cl)c(Cl)c2)CCNC3)cc1 [Compound 411] | 140 | 106 |
| Cc1ccc(Nc2c(-c3ccc(F)cc3)nc3n2C(C)(C)CN(C)C3(C)C)cc1 [Compound 539] | 3060 | 3120 |
| CC[C@H](C)[C@H](N)C(=O)N1CCn2c(nc(-c3ccc(F)cc3)c2Nc2ccc(C)cc2)C1 [Compound 481] | 20 | 14 |
| CC(C)(N)C(=O)N1CCn2c(nc(-c3ccc(F)cc3)c2Nc2ccc(C#N)c(Cl)c2)C1(C)C [Compound 591] | 60 | 46 |
| Cc1ccc(Nc2c(-c3ccc(F)cc3)nc3n2CC(=O)NC3(C)C)cc1 [Compound 507] | 140 | 136 |
| CC1(C)c2nc(-c3ccc(F)cc3)c(Nc3ccc(Cl)c(F)c3)n2CCN1C(=O)CN [Compound 419] | 30 | 24 |
| CC1(C)c2nc(-c3ccc(F)cc3)c(Nc3ccc(C#N)cc3)n2CCN1C(=O)CN [Compound 425] | 10 | 12 |
| Cc1ccc(Nc2c(-c3ccc(F)cc3)nc3n2CCN(C(=O)[C@@H](N)Cc2cscn2)C3)cc1 [Compound 486] | 30 | 16 |
| Cc1ccc(Nc2c(-c3ccc(F)cc3)nc3n2CCN(C(=O)CN)C3(C)C)cc1Cl [Compound 532] | 20 | 9 |

| Structure (SMILES) | EC50 (3D7 P. falciparum strain) [nM] | EC50 (W2 strain) [nM] |
| --- | --- | --- |
| Cc1ccc(Nc2c(-c3ccc(F)cc3)nc3n2CCNC3(C)C)cc1 [Compound 415] | 10 | 13 |
| CCN(c1ccc(Cl)c(F)c1)c1c(-c2ccc(F)cc2)nc2n1CCNC2 [Compound 413] | 180 | 131 |
| CC(C)(N)C(=O)N1CCn2c(nc(-c3ccc(F)cc3)c2Nc2ccc(Cl)c(Cl)c2)C1 [Compound 410] | 60 | 37 |
| CC(C)[C@@H]1NC(=O)Cn2c1nc(-c1ccc(F)cc1)c2Nc1ccc(Cl)c(F)c1 [Compound 562] | 4820 | 6290 |
| Cc1ccc(Nc2c(-c3ccc(F)cc3)nc3n2CC(C)(C)NC3)cc1 [Compound 578] | 250 | 339 |
| CC1(C)c2nc(-c3ccc(F)cc3)c(Nc3ccc(F)c(C#N)c3)n2CCN1C(=O)CN [Compound 522] | 1.7 | 2 |
| CC1(C)NCCn2c1nc(-c1ccc(F)cc1)c2Nc1cc(F)c(F)c(F)c1 [Compound 555] | 10 | 16 |
| COc1ccc(Nc2c(-c3ccc(F)cc3)nc3n2CC(=O)NC3(C)C)cn1 [Compound 545] | 3380 | 5620 |
| Cc1ccc(Nc2c(-c3ccc(F)cc3)nc3n2CC(=O)NC3(C)C)cc1C#N [Compound 535] | 2720 | 2350 |
| Cc1ccc(Nc2c(-c3ccc(F)cc3)nc3n2CCN(C(=O)C(C)(N)CO)C3)cc1 (stereo not shown) [Compound 505] | 140 | 116 |
| N[C@@H](CC1CCC1)C(=O)N1CCn2c(nc(-c3ccc(F)cc3)c2Nc2ccc(F)c(F)c2)C1 [Compound 429] | 20 | 36 |
| N[C@@H](Cc1ccc(F)c(F)c1)C(=O)N1CCn2c(nc(-c3ccc(F)cc3)c2Nc2ccc(F)c(F)c2)C1 [Compound 433] | 40 | 49 |
| O=C([C@@H]1CCN1)N1CCn2c(nc(-c3ccc(F)cc3)c2Nc2ccc(F)cc2)C1 [Compound 477] | 70 | 55 |
| N[C@@H](Cc1cscn1)C(=O)N1CCn2c(nc(-c3ccc(F)cc3)c2Nc2ccc(F)cc2)C1 [Compound 476] | 40 | 27 |
| CC1(C)NC(=O)Cn2c1nc(-c1ccc(F)cc1)c2Nc1cnc2ccccc2c1 [Compound 566] | 5480 | 4460 |
| CC1(C)Cn2c(nc(-c3ccc(F)cc3)c2Nc2ccc(Cl)cc2)CN1C(=O)CN [Compound 557] | 20 | 20 |
| CC(C)[C@H](O)C(=O)N1CCn2c(nc(-c3ccc(F)cc3)c2Nc2ccc(Cl)c(F)c2)C1 [Compound 489] | 10 | 9 |
| Cc1ccc(Nc2c(-c3cccc(F)c3)nc3n2C(C)(C)CN(C(=O)[C@@H](O)C(C)C)C3)cc1 [Compound 592] | 6010 | 5260 |
| CC(C)[C@H](O)C(=O)N1CCn2c(nc(-c3ccc(F)cc3)c2Nc2ccc(F)cc2)C1 [Compound 470] | 10 | 12 |
| Cc1ccc(Nc2c(-c3cc(F)ccc3F)nc3n2CCN(C(=O)C(C)(C)N)C3)cc1 [Compound 408] | 930 | 908 |

Source: US9469645B2, “Compounds and compositions for the treatment of parasitic diseases” (Novartis AG, priority 2009, dated 2016)
